# Laboratory results as given in publication PMC10673995, “Discovery of a novel cardiac-specific myosin modulator using artificial intelligence-based virtual screening” (Nature Communications, 2023).
# Where “and” joins values, the source holds several entries; their conditions need not be identical. Equal values may be shown once. Read-outs that look alike come from different tables or passages of the source.
# Key:
# [1] = tested on: isolated cardiac muscle fibers; details: read-out: reported IC50 for force inhibition; cited from earlier work
# cyclic GMP-AMP synthase = tested on: cyclic GMP-AMP synthase; parameters: method as in PubChem; details: ref PubChem; cited from earlier work
# [2] = molecular target: bovine cardiac myofibrils (CMF) (Bos taurus, UniProt Q9BE39); assay: Bovine cardiac myofibrillar ATPase dose-response (F10 and derivatives)
# bovine cardiac myofibrils (CMF), sequence (Q9BE39 whole entry): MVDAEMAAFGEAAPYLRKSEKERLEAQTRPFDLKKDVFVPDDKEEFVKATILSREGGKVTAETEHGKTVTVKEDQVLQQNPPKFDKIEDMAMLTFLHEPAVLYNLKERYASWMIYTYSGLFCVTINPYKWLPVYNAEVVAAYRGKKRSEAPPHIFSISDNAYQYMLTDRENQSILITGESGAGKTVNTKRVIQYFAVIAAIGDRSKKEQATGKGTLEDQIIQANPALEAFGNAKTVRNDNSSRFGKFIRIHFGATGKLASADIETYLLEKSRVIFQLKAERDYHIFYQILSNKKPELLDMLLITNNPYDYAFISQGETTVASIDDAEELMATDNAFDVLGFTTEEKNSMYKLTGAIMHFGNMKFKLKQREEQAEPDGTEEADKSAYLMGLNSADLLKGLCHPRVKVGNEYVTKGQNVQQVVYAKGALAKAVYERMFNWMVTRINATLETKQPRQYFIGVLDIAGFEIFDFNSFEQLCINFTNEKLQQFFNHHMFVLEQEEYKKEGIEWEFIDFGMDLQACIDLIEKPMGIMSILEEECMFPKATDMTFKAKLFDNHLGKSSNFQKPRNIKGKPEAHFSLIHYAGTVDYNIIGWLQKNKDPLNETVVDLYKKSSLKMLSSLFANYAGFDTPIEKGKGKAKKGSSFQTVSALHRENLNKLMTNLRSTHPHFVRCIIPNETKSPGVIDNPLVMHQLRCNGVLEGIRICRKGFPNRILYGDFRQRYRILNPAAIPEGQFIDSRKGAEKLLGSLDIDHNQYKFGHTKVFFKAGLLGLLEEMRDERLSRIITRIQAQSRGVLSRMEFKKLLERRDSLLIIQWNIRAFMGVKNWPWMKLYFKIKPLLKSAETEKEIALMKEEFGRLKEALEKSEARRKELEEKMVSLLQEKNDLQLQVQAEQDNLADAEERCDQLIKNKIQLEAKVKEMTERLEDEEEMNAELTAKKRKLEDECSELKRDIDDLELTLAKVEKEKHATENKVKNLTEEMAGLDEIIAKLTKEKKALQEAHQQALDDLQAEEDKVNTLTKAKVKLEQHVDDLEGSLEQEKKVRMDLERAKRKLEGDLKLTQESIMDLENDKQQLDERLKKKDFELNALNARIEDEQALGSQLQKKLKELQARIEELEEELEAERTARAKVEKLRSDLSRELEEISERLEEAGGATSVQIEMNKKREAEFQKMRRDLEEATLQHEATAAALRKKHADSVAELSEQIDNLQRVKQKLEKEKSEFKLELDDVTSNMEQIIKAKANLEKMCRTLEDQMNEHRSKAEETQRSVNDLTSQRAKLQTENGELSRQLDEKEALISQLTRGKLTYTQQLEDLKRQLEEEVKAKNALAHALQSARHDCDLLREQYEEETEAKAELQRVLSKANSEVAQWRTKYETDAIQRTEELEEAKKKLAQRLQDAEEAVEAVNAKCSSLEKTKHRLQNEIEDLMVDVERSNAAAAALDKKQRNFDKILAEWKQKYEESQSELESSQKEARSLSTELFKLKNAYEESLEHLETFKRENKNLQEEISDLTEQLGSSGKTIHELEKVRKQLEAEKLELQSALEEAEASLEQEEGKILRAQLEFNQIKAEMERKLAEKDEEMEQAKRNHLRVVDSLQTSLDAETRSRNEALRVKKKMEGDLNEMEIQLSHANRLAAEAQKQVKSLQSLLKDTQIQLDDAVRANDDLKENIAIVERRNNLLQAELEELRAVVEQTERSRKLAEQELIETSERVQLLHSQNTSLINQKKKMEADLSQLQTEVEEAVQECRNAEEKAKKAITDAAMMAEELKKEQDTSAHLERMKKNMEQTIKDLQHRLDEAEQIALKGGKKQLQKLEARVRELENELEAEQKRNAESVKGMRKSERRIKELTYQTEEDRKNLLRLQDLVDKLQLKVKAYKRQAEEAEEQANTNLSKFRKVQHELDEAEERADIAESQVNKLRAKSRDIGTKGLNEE
# bovine cardiac myofibrils (CMF), sequence (P85100 whole entry partner): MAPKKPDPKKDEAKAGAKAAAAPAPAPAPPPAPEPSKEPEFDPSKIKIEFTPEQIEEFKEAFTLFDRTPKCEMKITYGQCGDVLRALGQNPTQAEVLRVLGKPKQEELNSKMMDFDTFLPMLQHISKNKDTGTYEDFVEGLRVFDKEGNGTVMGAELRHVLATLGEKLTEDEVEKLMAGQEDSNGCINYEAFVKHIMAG
# bovine cardiac myofibrils (CMF), sequence (Q3SZE5 whole entry partner): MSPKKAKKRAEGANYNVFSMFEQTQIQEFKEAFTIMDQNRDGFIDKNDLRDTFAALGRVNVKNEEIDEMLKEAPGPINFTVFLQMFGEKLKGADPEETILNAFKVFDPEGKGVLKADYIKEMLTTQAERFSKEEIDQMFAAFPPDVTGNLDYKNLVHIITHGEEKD
# cardiac myofibrils = assay: Myofibrillar ATPase, cardiac (ventricle) myofibrils; format: biochemical, marmoset (Callithrix jacchus)
# Excerpt: Next we tested the myosin isoform specificity of F10 by measuring its effect on the ATPase activity of myofibrils isolated from ventricle, and fast (Tiberialis Anterior) and slow skeletal muscles (Soleus) isolated from marmoset (Callithrix jacchus).
# Demembranated myofibrils were freshly prepared from bovine ventricle on the day of the experiments as previously described[25],[63]. Marmoset ventricular and skeletal muscle tissue was kindly provided by the Biological Service Unit of King’s College London. Steady-state myofibrillar ATPase activity was measured using an identical protocol as described above but in myofibril assay buffer (composition in mmol L^−1: 20 MOPS pH 7, 50 KCl, 0.1 CaCl2, 1 DTT) with a final bovine CMF concentration of 1 mg mL^−1.
# [3] = tested on: neuropeptide receptor NPYLR7; parameters: method as in PubChem; details: ref PubChem; cited from earlier work
# [4] = tested on: demembranated rat ventricular trabeculae; assay: Mechanics of demembranated ventricular trabeculae (force, pCa50, ktr); parameters: Isometric force, individual trabeculae / force re-development, Representative Traces: unit not given here; details: for Normalized force, Force-pCa Titration / force re-development, Representative Traces: 20 μM F10; for Normalized Force (Tension): pCa 5.9
# Experimental: Wistar rats (Rattus norvegicus, male, 200–250 g, 7 weeks old) were killed by cervical dislocation without the use of anesthetics (Schedule 1 procedure in accordance with UK Animal Scientific Procedure Act, 1986) and demembranated right ventricular trabeculae were prepared as described previously.
# BSR-cRLCs were exchanged into demembranated trabeculae by extraction in CDTA-rigor solution (composition in mmol L^−1: 5 CDTA, 50 KCl, 40 Tris-HCl pH 8.4, 0.1% (v/v) Triton X-100) for 30 min followed by reconstitution with 40 μmol L^−1 BSR-cRLC in relaxing solution (composition in mmol L^−1: 25 Imidazole, 15 Na2Creatine phosphate (Na2CrP), 78.4 KPropionate (KPr), 5.65 Na2ATP, 6.8 MgCl2, 10 K2EGTA, 1 DTT, pH 7.1) for 1 h, replacing ~50% of the endogenous cRLC[40],[64].
# The sarcomere length of trabeculae was adjusted to 2.1 μm by laser diffraction in relaxing solution prior to each activation. […] Each activation was preceded by a 2-min incubation in pre-activating solution (composition in mmol L^−1: 25 Imidazole, 15 Na2CrP, 108.2 KPr, 5.65 Na2ATP, 6.3 MgCl2, 0.2 K2EGTA, 1 DTT, pH 7.1). Solutions with varying concentrations of free [Ca^2+] were prepared by mixing relaxing and activating solutions using MAXCHELATOR software (maxchelator.stanford.edu). Isometric force and steady-state fluorescence polarization values were measured once steady force had been established. The dependence of force and order parameters on free calcium concentration was fitted to data from individual trabeculae using non-linear least-squares regression to the modified Hill Eq. (1):1 F=Y0+A⋅([Ca^2+]^nH)/(−log10[pCa50]^nH+[Ca^2+]^nH) where pCa50 is the negative logarithm of [Ca^2+] corresponding to half-maximal change in F, nH is the Hill coefficient, Y0 is the baseline, and A is the amplitude (for normalized force data: Y0 = 0 and A = 1).
# [5] = molecular target: T1, bovine β-cardiac myosin S1 (Bos taurus, UniProt Q9BE39); assay: Cardiac acto-myosin S1 ATPase (NADH-coupled); format: biochemical; parameters: myosin S1 ATPase activity vs F-actin concentration: unit not given here; details: for myosin S1 ATPase activity vs F-actin concentration: 100 μmol/L F10, Experiment # 1-9
# T1 construct: IC50 for the ATPase activity of the isolated myosin motor domain; from tissue; host or cells: bovine ventricle
# T1 sequence (Q9BE39 85-778 limits assumed): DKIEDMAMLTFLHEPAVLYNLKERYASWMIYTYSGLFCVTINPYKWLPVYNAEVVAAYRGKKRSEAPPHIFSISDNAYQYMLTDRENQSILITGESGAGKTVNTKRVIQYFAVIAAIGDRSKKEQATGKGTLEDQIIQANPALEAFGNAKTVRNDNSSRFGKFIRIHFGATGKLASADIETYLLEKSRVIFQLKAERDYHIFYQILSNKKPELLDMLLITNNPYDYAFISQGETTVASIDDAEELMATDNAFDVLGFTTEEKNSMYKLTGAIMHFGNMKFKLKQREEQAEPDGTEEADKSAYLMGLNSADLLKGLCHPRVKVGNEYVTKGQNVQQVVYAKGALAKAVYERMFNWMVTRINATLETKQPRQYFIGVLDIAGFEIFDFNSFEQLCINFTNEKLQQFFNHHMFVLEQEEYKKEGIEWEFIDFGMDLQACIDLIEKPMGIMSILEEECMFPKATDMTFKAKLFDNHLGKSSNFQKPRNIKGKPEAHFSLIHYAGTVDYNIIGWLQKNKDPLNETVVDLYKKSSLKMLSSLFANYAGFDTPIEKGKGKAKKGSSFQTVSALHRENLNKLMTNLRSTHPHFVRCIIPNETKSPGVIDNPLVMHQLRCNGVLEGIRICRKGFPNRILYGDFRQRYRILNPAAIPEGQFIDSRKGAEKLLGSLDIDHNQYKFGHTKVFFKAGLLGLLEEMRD
# T1 sequence (P85100 whole entry partner, the tested form may be a part): as the sequence (P85100 whole entry partner) above
# Experimental: Bovine cardiac myosin S1 was prepared from bovine ventricle as previously described. Rabbit skeletal F-actin was purchased from Cytoskeleton Inc. and prepared for experiments according to manufacturer’s instructions.
# 20 μL of enzyme mix in buffer A (composition in mmol L^−1: 10 MOPS, 0.1 EGTA, 1 DTT, pH 7) containing 500 nmol L^−1 bovine cardiac myosin S1, 40 U mL^−1 lactate dehydrogenase and 400 U mL^−1 pyruvate kinase were dispensed into a black 96-well half area plate (Greiner). […] Each assay plate contained five wells with DMSO only (negative control) and five wells with 10 μmol L^−1 Blebbistatin (positive control). Plates were incubated on a plate shaker at 30 °C for 10 min at 2000 rpm. […] 96-channel pipette. Plates were briefly mixed by shaking at 5000 rpm on a plate shaker and spun down at 3000 g for 10 s. NADH fluorescence intensity was measured for each well using a ClarioStar Plate Reader for 10 min every 30 sec at 30 °C with the following settings: excitation at 380 nm with a 10 nm bandwidth and emission at 470 nm with a 24 nm bandwidth. Data were recorded with BMG Labtech Reader Control Software v6.20.
compound,measurement,setting,value
CC(C)n1c(=O)cc(N[C@@H](C)c2ccccc2)[nH]c1=O [Mavacamten],IC50,[1],~1 µM
CCc1cc2c(=O)n(NC(=S)NC(C)C)cnc2s1 [F10],biological activity in primary screen,cyclic GMP-AMP synthase,"without, however, any biological activity"
same,IC50,[2],~24 µM
same,maximal inhibition of bovine CMF ATPase activity,"[2]; suboptimal Ca^2+-activation, about 70% maximal activation",about 60%
same,reduction of ATPase activity of fully Ca^2+-activated cardiac myofibrils,cardiac myofibrils; 20 μmol L^−1 F10,about 25%
same,"Myofibrilar ATPase [%], change vs control","cardiac myofibrils; Cardiac, 20 μmol L^-1 F10",-25%
same,"Myofibrilar ATPase, individual experiments","cardiac myofibrils; Cardiac, 20 μmol L^-1 F10",83.5308% and 67.1834% and 78.6678% and 70.8623% and 61.5039% and 74.009% and 72.9056% and 72.7421% and 68.3286% and 79.5291% and 87.482% and 81.308% and 87.6564% and 79.3198% and 89.7828% and 83.8896% and 74.0503% and 38.3012% and 88.0917% and 60.4189%
same,biological activity in primary screen,[3],"without, however, any biological activity"
same,"Normalized force, Force-pCa Titration",[4]; pCa 4.5,1.00
same,"Normalized force, Force-pCa Titration",[4]; pCa 5.5,0.88 and 0.85 and 0.81
same,"Normalized force, Force-pCa Titration",[4]; pCa 5.6,0.73 and 0.76 and 0.72
same,"Normalized force, Force-pCa Titration",[4]; pCa 5.7,0.48 and 0.55 and 0.53
same,"Normalized force, Force-pCa Titration",[4]; pCa 5.8,0.13 and 0.14 and 0.18
same,"force re-development, Representative Traces",[4]; t 0.0001 s,0.9946
same,"force re-development, Representative Traces",[4]; t 0.0002 s,0.9927
same,"force re-development, Representative Traces",[4]; t 0.0003 s,0.9927
same,"force re-development, Representative Traces",[4]; t 0.0004 s,0.9927
same,IC50,"[4]; Rattus norvegicus, pCa 5.9, about 50% maximal activation, read-out: IC50 active isometric force",9 µM
same,pCa50 of force development,"[4]; in the presence of F10 (20 μM), control 5.88 ± 0.02",5.69 ± 0.01 and 5.68 and 5.693 and 5.684
same,Tmin,[4]; individual replicates,2.9 and 4.1 and 1.3 and 4.3 and 4.9
same,ktr,[4]; individual replicates,35.4 and 37.1 and 32.7
same,nH,[4]; individual replicates,5.8 and 6.0 and 4.9
same,pCa50,[4]; individual replicates,5.68 (2×) and 5.69
same,"Isometric force, individual trabeculae","[4]; pCa 4.5, 20 μmol L^−1 F10",16.0321 and 19.6135 and 8.993 and 17.2526 and 16.2235
same,decrease of maximal active isometric tension,"[4]; pCa 4.5, 20 μmol L^−1 F10",more than 75%
same,Normalized Force (Tension),[4]; F10 5 micromolar,80.6034 % control
same,Normalized Force (Tension),[4]; F10 10 micromolar,50.8621 % control
same,Normalized Force (Tension),[4]; F10 20 micromolar,27.5862 % control
same,Normalized Force (Tension),[4]; F10 40 micromolar,17.2414 % control
same,"Isometric force, individual trabeculae","[4]; pCa 9, 20 μmol L^−1 F10",2.857 and 4.07 and 1.256 and 4.268 and 4.903
same,effect on passive tension,"[4]; pCa 9, 20 μmol L^−1 F10",no effect
same,Tmin (passive tension),"[4]; pCa 9, 20 μmol L^−1 F10, control 3.4 ± 0.5",3.5 ± 0.6 mN mm-2
same,"rate of force re-development ktr, individual trabeculae (Bar Graph)","[4]; slack-re-stretch protocol, F10, in s-1 (unit assumed)",35.4 and 37.11 and 32.67
same,rate of force re-development ktr,"[4]; slack-re-stretch protocol, in the presence of F10, control 12.0 ± 1.9",35.1 ± 1.3 s⁻¹ and 35 ± 1 s⁻¹
same,EC50,[5],~20 µM
same,LE (ligand efficiency),[5],0.34
same,reduction of F-actin stimulated ATPase activity,"[5]; 10 μmol L^−1, mean ± s.e.m., n = 4",44 ± 2%
same,myosin S1 ATPase activity vs F-actin concentration,[5]; F-Actin 0 μmol L^−1,0
same,myosin S1 ATPase activity vs F-actin concentration,[5]; F-Actin 6.25 μmol L^−1,0.1565 and 0.1528 and 0.08965 and 0.1313 and 0.1366 and 0.1027 and 0.1063
same,myosin S1 ATPase activity vs F-actin concentration,[5]; F-Actin 80 μmol L^−1,0.417 and 0.4489 and 0.3031
same,remaining activity at 12.207 µM,"[5]; F10 0.012207 mmol L-1 (so in the source), Experiment # 1-6, read-out: acto-myosin S1 ATPase activity, dose-response",92.9%
same,remaining activity at 24.414 µM,"[5]; F10 0.024414 mmol L-1 (so in the source), Experiment # 1-6, read-out: acto-myosin S1 ATPase activity, dose-response",101%
same,remaining activity at 48.828 µM,"[5]; F10 0.048828 mmol L-1 (so in the source), Experiment # 1-6, read-out: acto-myosin S1 ATPase activity, dose-response",99.4%
same,remaining activity at 97.656 µM,"[5]; F10 0.097656 mmol L-1 (so in the source), Experiment # 1-6, read-out: acto-myosin S1 ATPase activity, dose-response",92.7%
same,remaining activity at […],"[5]; F10 0.195313 mmol L-1 (so in the source), Experiment # 1-6, read-out: acto-myosin S1 ATPase activity, dose-response",94.4%
same,remaining activity at 390.625 µM,"[5]; F10 0.390625 mmol L-1 (so in the source), Experiment # 1-6, read-out: acto-myosin S1 ATPase activity, dose-response",98.9%
same,remaining activity at 781.25 µM,"[5]; F10 0.78125 mmol L-1 (so in the source), Experiment # 1-6, read-out: acto-myosin S1 ATPase activity, dose-response",100%
same,remaining activity at […],"[5]; F10 3.125 mmol L-1 (so in the source), Experiment # 1-6, read-out: acto-myosin S1 ATPase activity, dose-response",86.8%
same,remaining activity at […],"[5]; F10 6.25 mmol L-1 (so in the source), Experiment # 1-6, read-out: acto-myosin S1 ATPase activity, dose-response",79.3%
same,remaining activity at […],"[5]; F10 12.5 mmol L-1 (so in the source), Experiment # 1-6, read-out: acto-myosin S1 ATPase activity, dose-response",69.6%
same,IC50,"[5]; IC50 acto-myosin S1 ATPase activity, means ± s.e.m., n = 6",21.3 ± 3.4 µM
same,maximal decrease of actomyosin ATPase activity,"[5]; dose-response, means ± s.e.m., n = 6",89 ± 5%
same,maximal rate of ATP hydrolysis (kcat),"[5]; in the presence of 100 μmol/L F10, control about 1.3",about 0.5 s^−1 head^−1
same,apparent dissociation equilibrium constant for F-actin binding (Kapp),[5]; in the presence of F10 (same in its absence),about 20 μmol L^−1
same,IC50,"[5]; means ± s.e.m., n = 6, read-out: IC50 acto-myosin S1 ATPase activity",21 ± 3 µM
same,"acto-myosin S1 ATPase activity, normalized to DMSO control","[5]; single dose 10 μmol L^−1 compound, 10 μmol L^−1 F-actin, Repeat #1-#4, listed as 70",59 and 55 and 52 and 58
